The values below come from US20230279020A9, “CARM1 INHIBITORS AND USES THEREOF” (Epizyme, Inc., priority 2013, published 2023).

Broadly, the IC50 is the point on the concentration scale where inhibition reaches its midpoint.

Sequence of Human CARM1 (PRMT4) (Q86X55 other isoform, or with tags, fused parts or gaps isoform Q86X55-1): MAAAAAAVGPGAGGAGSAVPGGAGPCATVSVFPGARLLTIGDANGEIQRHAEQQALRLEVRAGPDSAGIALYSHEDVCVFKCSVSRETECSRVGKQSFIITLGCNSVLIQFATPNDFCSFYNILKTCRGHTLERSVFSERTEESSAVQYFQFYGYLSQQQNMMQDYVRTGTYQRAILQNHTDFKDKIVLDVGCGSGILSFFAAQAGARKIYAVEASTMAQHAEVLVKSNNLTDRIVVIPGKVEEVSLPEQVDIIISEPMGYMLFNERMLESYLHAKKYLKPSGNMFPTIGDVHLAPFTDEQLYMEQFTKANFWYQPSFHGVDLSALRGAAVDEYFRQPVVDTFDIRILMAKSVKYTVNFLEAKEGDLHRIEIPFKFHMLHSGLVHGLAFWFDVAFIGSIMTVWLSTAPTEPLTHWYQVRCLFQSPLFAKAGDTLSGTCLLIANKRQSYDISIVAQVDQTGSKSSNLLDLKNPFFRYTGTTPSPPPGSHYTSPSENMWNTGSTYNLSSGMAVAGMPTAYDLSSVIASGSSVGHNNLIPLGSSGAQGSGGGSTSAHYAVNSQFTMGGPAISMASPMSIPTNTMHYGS

This experiment concerns the target Human CARM1 (PRMT4) (Homo sapiens (Human), UniProt Q86X55). The experiment in a line: CARM1 enzyme assay on peptide substrate (3H-SAM Flashplate). Particulars: Biochemical potencies, classification codes; read-out: Biochem IC50.
Regarding `CNC[C@@H](O)COc1ccc(Cl)c(-c2nc(-c3c(C)noc3C)cc(N3Cc4cnn(C)c4C3)n2)c1` [Example 250-3], the IC50 is below 100 nM.

Regarding `CNCC(O)COc1cccc(-c2nc(N[C@@H]3CCOC[C@@H]3OC)c(C)c(-c3c(C)noc3C)n2)c1` (stereo partly drawn) [Example 220-1a], the IC50 is below 100 nM.

Take `CNCC(O)COc1cccc(-c2nc(-c3c(C)noc3C)c(C)c(N3CCN(C(=O)OCCF)CC3)n2)c1` (stereo not drawn) [Example 121-1a]: the IC50 was below 100 nM.

For `CNCC(O)COc1cccc(-c2nc(NCC3CCN(C(=O)C4CC4)CC3)c(C)c(-c3c(C)noc3C)n2)c1` (stereo not drawn) [Example 249-1a], the IC50 is below 100 nM.

For the molecule `CNC[C@@H](O)COc1ccc(Cl)c(-c2nc(-c3c(C)noc3C)c(C)c(N3CCC4(CC3)CN(C3CC3)C4)n2)c1` [Example 158-3], the IC50 was below 100 nM.

With `CNC[C@@H](O)COc1ccc(Cl)c(-c2nc(-c3c(C)noc3C)c(C)c(N3Cc4cc(Br)cnc4C3)n2)c1` [Example 248-3], the IC50 was below 100 nM.

In the case of `CNCC(O)COc1cccc(-c2nc(-c3c(C)noc3C)c(C)c(N3CCO[C@@H](CN(C)C(=O)N(C)C)C3)n2)c1` (stereo partly drawn) [Example 176-1a], the IC50 was below 100 nM.

For `CNCC(O)COc1cc(Cl)cc(-c2nc(-c3ccncc3)c(C3CC3)c(N(C)C3CCOCC3)n2)c1` (stereo not drawn) [Example 574-1a], the IC50 was below 100 nM.

Turning to `CNCC(O)COc1cccc(-c2nc(NC3CCOC3)cc(-c3c(C)noc3C)n2)c1` (stereo not drawn) [Example 31-1a], the IC50 was below 100 nM.

Consider `CNCC(O)COc1cccc(-c2nc(NCC3CCN(C4COC4)CC3)c(C)c(-c3c(C)noc3C)n2)c1` (stereo not drawn) [Example 262-1a], for which the IC50 is below 100 nM.

As to `CNCC(O)COc1cccc(-c2cc(N(C)C3CCOCC3)nc(C3CC3)n2)c1` (stereo not drawn) [Example 4-2], the IC50 is below 100 nM.

Turning to `CNC[C@@H](O)COc1ccc(Cl)c(-c2nc(N[C@H]3C[C@@H](OC)C3)c(C)c(-c3c(C)noc3C)n2)c1` [Example 144-3], the IC50 is below 100 nM.

For `CNCC(O)COc1cc(Cl)cc(-c2nc(-c3c(C)noc3C)cc(-c3c(C)noc3C)n2)c1` (stereo not drawn) [Example 4-1a], the IC50 was below 100 nM.

For `CNCC(O)COc1ccc(Cl)c(-c2nc(O[C@H]3CCN(C(=O)OC)[C@@H](C)C3)c(C)c(-c3c(C)noc3C)n2)c1` (stereo partly drawn) [Example 36-3], the IC50 is below 100 nM.

With `CNCC(O)COc1cccc(-c2nc(-c3c(C)noc3C)c(C)c(N3C[C@H](C)O[C@@H](C)C3)n2)c1` (stereo partly drawn) [Example 199-1a], the IC50 is below 100 nM.

On to `CCOC(=O)N1CCC[C@@H]1COc1nc(-c2cc(OC[C@H](O)CNC)ccc2Cl)nc(-c2c(C)noc2C)c1C` [Example 133-3], for which the IC50 is below 100 nM.

As for `CNC[C@@H](O)COc1ccc(Cl)c(-c2nc(-c3c(C)noc3C)c(C)c(N3Cc4[nH]nc(C)c4C3)n2)c1` [Example 224-3], the IC50 is below 100 nM.

With `CNCC(O)COc1cccc(-c2nc(-c3c(C)noc3C)cc(N3CCN(C(C)=O)C4(CC4)C3)n2)c1` (stereo not drawn) [Example 70-1a], the IC50 was below 100 nM.

In the case of `CNCC(O)COc1cccc(-c2nc(-c3c(C)noc3C)c(C)c(N3CCN(C(=O)OC)C(C(F)F)C3)n2)c1` (stereo not drawn) [Example 17-3], the IC50 was below 100 nM.

For `CNC[C@@H](O)COc1ccc(Cl)c(-c2nc(-c3c(C)noc3C)c(C)c(N3CCC4(CCN(C5CC5)C4)C3)n2)c1` (stereo partly drawn) [Example 138-3], the IC50 is below 100 nM.

On to `CCOC(=O)N1CCCC(CNc2nc(-c3cccc(OCC(O)CNC)c3)nc(-c3c(C)noc3C)c2C)C1` (stereo not drawn) [Example 194-1a], for which the IC50 is below 100 nM.

Turning to `CNC[C@@H](O)COc1ccc(Cl)c(-c2nc(-c3c(C)noc3C)c(C)c(N3CCC4(CCOC4)C3)n2)c1` (stereo partly drawn) [Example 288-3], the half-inhibitory concentration (IC50) was below 100 nM.

`CNCC(O)COc1cccc(-c2nc(-c3c(C)noc3C)c(C)c(N3CCC4(CC3)CN(C(=O)OC)C4)n2)c1` (stereo not drawn) [Example 251-1a]: the IC50 was below 100 nM.

Consider `CNC[C@@H](O)COc1ccc(Cl)c(-c2nc(-c3c(C)noc3C)c(C)c(N3CCOC3=O)n2)c1` [Example 187-3], for which the IC50 is below 100 nM.

`CCOC(=O)N1CCOC[C@@H]1CNc1nc(-c2cc(OC[C@@H](O)CNC)ccc2F)nc(-c2c(C)noc2C)c1C` [Example 61-3]: the IC50 was below 100 nM.

As for `Cc1noc(C)c1-c1nc(-c2cccc(OCC(O)CN)c2)nc(NC2CCOCC2)c1C` (stereo not drawn) [Example 54-1a], the IC50 was below 100 nM.

As to `CNCC(O)COc1cccc(-c2nc(NCCCN3CCCCCC3=O)cc(-c3c(C)noc3C)n2)c1` (stereo not drawn) [Example 99-1a], the IC50 is below 100 nM.

In the case of `CNC[C@@H](O)COc1ccc(Cl)c(-c2nc(N[C@H]3CCN(C4CC4)C[C@H]3F)c(Cl)c(-c3c(C)noc3C)n2)c1` [Example 195-3], the IC50 is below 100 nM.

On to `CCOC(=O)N1CCOC[C@@H]1CNc1nc(-c2cc(OC[C@H](O)CNC)ccc2Cl)nc(-c2c(C)noc2C)c1Cl` [Example 56-3], for which the IC50 was below 100 nM.

Consider `CNC[C@@H](O)COc1ccc(Cl)c(-c2nc(-c3c(C)noc3C)c(C)c(N3CC(F)C3)n2)c1` [Example 206-3], for which the IC50 was below 100 nM.

On to `CNCC(O)COc1cccc(-c2nc(-c3c(C)noc3C)c(C)c(N3CCO[C@@H](C)C3)n2)c1` (stereo partly drawn) [Example 209-1a], for which the IC50 was below 100 nM.

Turning to `CNCC(O)COc1cccc(-c2nc(N[C@@H]3CCOC3)c(C)c(N3CCN(S(C)(=O)=O)CC3)n2)c1` (stereo partly drawn) [Example 434-1a], the IC50 is below 100 nM.

Turning to `CNCC(O)COc1cccc(-c2nc(NC3CCOC3)c(C)c(N3CCN4C(=O)OC[C@@H]4C3)n2)c1` (stereo partly drawn) [Example 454-1a], the IC50 is below 100 nM.

In the case of `CNCC(O)COc1cccc(-c2nc(N[C@H]3C[C@H]4CC[C@@H](C3)N4C(=O)OC)c(C)c(-c3c(C)noc3C)n2)c1` (stereo partly drawn) [Example 266-1a], the IC50 was below 100 nM.

`CNC[C@@H](O)COc1ccc(Cl)c(-c2nc(N[C@H]3CCN(C4CC4)C[C@H]3F)c(C)c(-c3c(C)noc3C)n2)c1` [Example 44-3]: the IC50 was below 100 nM.

Turning to `CNCC(O)COc1ccc(Cl)c(-c2nc(N[C@H]3CCN(C(=O)OC)C[C@H]3F)c(C)c(-c3c(C)noc3C)n2)c1` (stereo partly drawn) [Example 4-3], the IC50 was below 100 nM.

Take `CCO[C@H]1CCC[C@@H]1Nc1nc(-c2cc(OC[C@H](O)CNC)ccc2Cl)nc(-c2c(C)noc2C)c1C` [Example 222-3]: the IC50 was below 100 nM.

On to `CNCC(O)COc1cccc(-c2nc(N(C)C3CCOCC3)cc(N3C[C@H]4C[C@@H]3CN4)n2)c1` (stereo partly drawn) [Example 562-1a], for which the IC50 is below 100 nM.

In the case of `CNCC(O)COc1cccc(-c2nc(N[C@H]3CC[C@H](O)C3)c(C)c(-c3c(C)noc3C)n2)c1` (stereo partly drawn) [Example 135-1a], the IC50 is below 100 nM.

`CNCC(O)COc1cccc(-c2nc(N[C@@H]3CCOC3)c(C)c(-c3cnc(OC)nc3)n2)c1` (stereo partly drawn) [Example 356-1a]: the IC50 is below 100 nM.

Regarding `CNC[C@@H](O)COc1ccc(Cl)c(-c2nc(NC[C@H]3CCCO3)c(Cl)c(-c3c(C)noc3C)n2)c1` [Example 215-3], the 50% inhibitory concentration (IC50) was below 100 nM.

As to `CNC[C@H](O)COc1ccc(Cl)c(-c2nc(N[C@H]3C[C@@H](OC)C3)c(C)c(-c3c(C)noc3C)n2)c1` [Example 54-3], the IC50 was below 100 nM.

For `CNCC(O)COc1cccc(-c2nc(NC3CCOC3)c(C)c(N3CC(N)CC(Cl)C3)n2)c1` (stereo not drawn) [Example 442-1a], the IC50 was below 100 nM.

As for `CNC[C@@H](O)COc1ccc(F)c(-c2nc(-c3c(C)noc3C)c(C)c(N3Cc4cccc(F)c4C3)n2)c1` [Example 266-3], the IC50 is below 100 nM.

For the molecule `CNCC(O)COc1cccc(-c2nccc(NC3CCOCC3)n2)c1` (stereo not drawn) [Example 4-1], the IC50 was above 10000 nM.
